One data set deals with DENV4 MTase domain (Dengue virus type 4, UniProt P09866). Kind of data set: Thermal shift assay, DENV4 MTase domain. The conditions noted are these: read-out: ΔTM.
For the next data set, the system named is DENV4 RdRp domain. Kind of data set: Thermal shift assay, DENV4 RdRp domain. The conditions noted are these: RdRp domain DENV4, 100 μM compound.
The nature of data set [1]: In vivo formation of AT-9010 in PBMCs, mice.
A further data set addresses DENV1 MTase domain (Dengue virus type 1, UniProt P17763). Kind of data set: Thermal shift assay, DENV1 MTase domain. The conditions noted are these: read-out: ΔTM.
The nature of data set [2]: Pharmacokinetic study in SAD cohorts. Format: in vivo, human. Conditions: for AUCInf / Cmax / T1/2 / Tmax: human plasma; for CLR: human. How it is done: Pharmacokinetic measurements for FIGS. 11, 12, 13, 14, and 15 were analyzed using LC-MS/MS according to the protocol described herein. Plasma samples were prepared for MS analysis by adding internal standards and extracting with 20 volumes chilled ACN. After vortex (800 rpm for 10 min) and centrifugation (4,000 rpm, 15 min, 4° C.), the supernatants (25 μL) were diluted with an equal volume of H2O, mixed and spun again. After adding internal standards, the PBMC samples (10^6 cells) were lyzed with 300 μL MeOH/H2O (70:30, v/v) and 40 mM dibutylammonium acetate (DBAA), mixed by vortex and centrifuged (12,000 rpm, 15 min, 4° C.). Aliquots of the supernatants (35 μL) were dried under nitrogen and reconstituted in H2O, then mixed and spun again. […] A binary nonlinear gradient with mobile phases A (0.1% formic acid in water) and B (0.1% formic acid in ACN) were used to elute samples at 0.8 mL/min, with a run time of 5 min. […] A binary nonlinear gradient with mobile phases A (0.001% NHr H2O, 0.18 mM DBAA in H2O) and B (10 mM N,N-dimethyl-hexylamine, 3 mM NH4OAc in ACN/H2O (50.50, v/v)) were used to elute samples at 0.5 mL/min, with a run time of 3 min. Standards in 50% MeOH were used for calibration. […] Internal standards (ISS) as described previously (Good et al., Preclinical evaluation of AT-527, a novel guanosine nucleotide prodrug with potent, pan-genotypic activity against hepatitis C virus. PLos One 15:e02271045) were used to correct for variations in recovery.
Data analysis of the pharmacokinetic data generated according to Example 21 and presented in FIGS. 11, 12, 13, 14, and 15 was analyzed according to the procedure described herein. Plasma concentrations of Compound 1 (AT-281), Compound 3 (AT-551) and Compound 6 (AT-273) were subjected to non-compartmental pharmacokinetic analysis using Phoenix WinNonlin software (version 6.3 or above, Pharsight, Mountain View, CA). The linear/log trapezoidal rule was applied in obtaining the PK parameters.

[3] abbreviates: single oral Compound 2 250 mg, fasting.
The mark [4] stands for this setting: single oral Compound 2 500 mg, fasting.
[5] abbreviates: single oral Compound 2 500 mg, fed.
Where [6] appears, read: single oral Compound 2 1000 mg, South/Southeast/East Asian origin.
The mark [7] stands for this setting: single oral Compound 2 1000 mg, fasting.
The mark [8] stands for this setting: single oral Compound 2 1500 mg, fasting.

DENV4 MTase domain, sequence (P09866 2489-2751): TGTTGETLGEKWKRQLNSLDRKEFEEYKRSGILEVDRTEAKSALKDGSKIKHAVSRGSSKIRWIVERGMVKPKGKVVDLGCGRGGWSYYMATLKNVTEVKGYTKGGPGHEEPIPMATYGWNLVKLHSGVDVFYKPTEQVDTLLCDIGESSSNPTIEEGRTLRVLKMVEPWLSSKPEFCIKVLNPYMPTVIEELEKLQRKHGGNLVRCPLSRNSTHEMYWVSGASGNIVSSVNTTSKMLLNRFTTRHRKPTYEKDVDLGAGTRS
DENV1 MTase domain, sequence (P17763 2495-2756): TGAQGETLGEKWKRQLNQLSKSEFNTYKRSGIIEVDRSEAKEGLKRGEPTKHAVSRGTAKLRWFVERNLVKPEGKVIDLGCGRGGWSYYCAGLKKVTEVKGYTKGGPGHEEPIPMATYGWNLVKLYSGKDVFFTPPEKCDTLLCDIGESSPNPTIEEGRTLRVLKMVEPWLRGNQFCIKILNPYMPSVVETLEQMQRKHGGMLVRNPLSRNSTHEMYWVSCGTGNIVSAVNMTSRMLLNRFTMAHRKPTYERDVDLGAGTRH

The term ΔTm denotes the shift of the melting midpoint relative to a reference. Take `C[C@@]1(F)[C@H](O)[C@@H](COP(=O)(O)OP(=O)(O)OP(=O)(O)O)O[C@H]1n1cnc2c(=O)[nH]c(N)nc21` [Compound 5]: the figures for the ΔTm at 100 µM on DENV4 MTase domain and on DENV1 MTase domain were 2.9 ± 0.1 °C and 3.8 ± 0.1 °C, respectively. The ΔTM with DENV4 RdRp domain came out at 4.1 ± 0.1 °C. Besides, the “concentration of AT-9010 in PBMCs” value is given as 0.297 pmol/10^6 cells in data set [1] (loading dose 500 mg/kg then 250 mg/kg 4 h later, 4 h after the second dose); 0.322 pmol/10^6 cells in data set [1] (loading dose 500 mg/kg then 250 mg/kg 4 h later, 12 h after the second dose); 0.092 pmol/10^6 cells in data set [1] (single oral dose 50 mg/kg, 12 h).

The term Cmax denotes the highest concentration seen after dosing. On to `C[C@@]1(F)[C@H](O)[C@@H](CO)O[C@H]1n1cnc2c(=O)[nH]c(N)nc21` [Compound 6, 2′-fluoro-2′-C-methylguanosine], for which the “dose proportionality of plasma exposure” value in data set [2] (dose range 250 to 1500 mg) is “slightly less than dose-proportional”. Besides, the “Urine Elimination” value in data set [2] (following single oral administration of Compound 2 at 250 to 1500 mg) is reported as 6.7-8.8%. Also, the AUCInf in data set [2] (setting [3]) was determined as 1440 ± 280 ng·h/mL; in data set [2] (setting [4]) it was 2390 ± 478 ng·h/mL; in data set [2] (setting [5]), 2990 ± 558 ng·h/mL; in data set [2] (setting [6]), 3830 ± 519 ng·h/mL; in data set [2] (setting [7]) it was 4350 ± 1520 ng·h/mL; in data set [2] (setting [8]), 5460 ± 1190 ng·h/mL. Also, the Cmax in data set [2] (setting [3]) was 91 ± 19 ng/mL; in data set [2] (setting [4]), 135 ± 25 ng/mL; in data set [2] (single oral Compound 2 500 mg, fed (high-fat/high-calorie meal)) it was 175 ± 29 ng/mL; in data set [2] (setting [7]), 241 ± 71 ng/mL; in data set [2] (single oral Compound 2 1000 mg, patients of South/Southeast/East Asian origin), 240 ± 46 ng/mL; in data set [2] (setting [8]), 283 ± 32 ng/mL. In addition, the T1/2 was determined as 19.1 ± 10.2 h in data set [2] (setting [3]); 13.9 ± 5.9 h in data set [2] (setting [4]); 17.3 ± 11.0 h in data set [2] (setting [5]); 16.3 ± 3.0 h in data set [2] (setting [6]); 26.2 ± 12.2 h in data set [2] (setting [7]); 21.7 ± 6.2 h in data set [2] (setting [8]). In addition, the Tmax was 6.0 (3.0-6.0) h in data set [2] (setting [3]); 4.0 (3.0-8.0) h in data set [2] (setting [4]); 6.0 (6.0-8.1) h in data set [2] (setting [5]); 5.0 (3.1-6.0) h in data set [2] (setting [6]); 4.1 (4.0-6.3) h in data set [2] (setting [7]); 6.0 (3.2-6.1) h in data set [2] (setting [8]). Further, the CLR is recorded as 15.8 ± 2.8 L/h in data set [2] (setting [3]); 16.8 ± 7.6 L/h in data set [2] (setting [4]); 13.4 ± 3.3 L/h in data set [2] (setting [5]); 18.7 ± 2.1 L/h in data set [2] (setting [6]); 17.1 ± 6.5 L/h in data set [2] (setting [7]); 19.5 ± 4.1 L/h in data set [2] (setting [8]).

The record behind these values is patent publication US20250082656A1, “DOSAGE REGIMENS FOR TREATMENT OF DENGUE INFECTION” (Atea Pharmaceuticals, Inc., priority 2022, published 2025).
